This note sets out measurements from patent US8163724B2, “Glucocorticosteroids, processes for their preparation, pharmaceutical compositions containing them and their use in therapy” (AstraZeneca AB, priority 2007, dated 2012).

The term IC50 denotes the concentration at which inhibition is half-maximal.

The structures appear in SMILES notation.

The target of the test is T1, recombinant human GR (Homo sapiens, UniProt P04150).
T1 construct: purchased Panvera/Invitrogen P2812 (kit P2893)
T1 sequence (P04150 1-777): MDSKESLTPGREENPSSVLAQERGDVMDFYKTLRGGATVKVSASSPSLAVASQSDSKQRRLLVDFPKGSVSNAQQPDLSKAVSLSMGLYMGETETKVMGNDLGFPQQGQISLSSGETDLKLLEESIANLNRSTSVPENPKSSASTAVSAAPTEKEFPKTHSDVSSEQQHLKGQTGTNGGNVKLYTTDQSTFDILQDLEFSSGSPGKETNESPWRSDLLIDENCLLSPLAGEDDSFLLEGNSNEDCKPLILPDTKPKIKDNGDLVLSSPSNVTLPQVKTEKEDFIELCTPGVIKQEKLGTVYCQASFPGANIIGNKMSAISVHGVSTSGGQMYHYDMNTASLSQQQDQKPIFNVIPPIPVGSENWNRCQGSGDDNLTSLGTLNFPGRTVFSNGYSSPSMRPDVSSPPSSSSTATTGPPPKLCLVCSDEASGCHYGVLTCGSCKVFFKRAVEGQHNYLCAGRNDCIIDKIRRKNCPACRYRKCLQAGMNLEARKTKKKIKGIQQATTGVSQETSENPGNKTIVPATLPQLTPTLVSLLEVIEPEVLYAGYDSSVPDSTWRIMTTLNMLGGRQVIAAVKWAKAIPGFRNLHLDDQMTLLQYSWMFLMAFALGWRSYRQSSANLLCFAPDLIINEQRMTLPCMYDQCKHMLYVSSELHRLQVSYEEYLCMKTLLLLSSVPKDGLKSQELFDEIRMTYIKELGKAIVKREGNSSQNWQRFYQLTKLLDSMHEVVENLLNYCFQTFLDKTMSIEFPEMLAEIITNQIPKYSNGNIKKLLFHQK
The experiment in a line: Human Glucocorticoid Receptor (GR) Assay (fluorescence polarization, Panvera/Invitrogen kit). Format: binding. The settings on record: fluorescence polarization; GS Red tracer; 2 hours at room temperature; 100% control 10 μM Dexamethasone; read-out: Inhibition of GR binding, IC50. In short, it runs like this:
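Fluorescence polarization competition with recombinant GR and GS Red fluorescent ligand plus stabilizing peptide and DTT in potassium phosphate/sodium molybdate/EDTA buffer with DMSO. Incubated 2 hours at room temperature in the dark; 0% control DMSO, 100% control 10 μM dexamethasone.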
Background: In fluorescence polarisation assays a small probe gives low polarisation when free and higher when bound to something large.
As for `C[C@]12Cc3cnn(-c4ccc(F)cc4)c3C=C1CC[C@@H]1[C@@H]2[C@@H](O)C[C@@]2(C)[C@H]1CC[C@]2(OC(=O)C1CCC1)C(=O)SCC#N` [Example 113, (1R,3aS,3bS,10aR,10bS,11S,12aS)-1-{[(Cyanomethyl)sulfanyl]carbonyl}-7-(4-fluorophenyl)-11-hydroxy-10a,12a-dimethyl-1,2,3,3a,3b,4,5,7,10,10a,10b,11,12,12a-tetradecahydrocyclopenta[5,6]naphtho[1,2-f]indazol-1-yl cyclobutanecarboxylate], the IC50 came to 11 nM.

Turning to `C[C@]12Cc3cnn(-c4ccc(F)cc4)c3C=C1CC[C@@H]1[C@@H]2[C@@H](O)C[C@@]2(C)[C@H]1CC[C@]2(OC(=O)CC1CCCC1)C(=O)SCC#N` [Example 114, (1R,3aS,3bS,10aR,10bS,11S,12aS)-1-{[(Cyanomethyl)sulfanyl]carbonyl}-7-(4-fluorophenyl)-11-hydroxy-10a,12a-dimethyl-1,2,3,3a,3b,4,5,7,10,10a,10b,11,12,12a-tetradecahydrocyclopenta[5,6]naphtho[1,2-f]indazol-1-yl cyclopentylacetate], the IC50 amounted to 16 nM.

On to `C[C@]12Cc3cnn(-c4ccc(F)cc4)c3C=C1CC[C@@H]1[C@@H]2[C@@H](O)C[C@@]2(C)[C@H]1CC[C@]2(OC(=O)c1cccs1)C(=O)SCC#N` [Example 115, (1R,3aS,3bS,10aR,10bS,11S,12aS)-1-{[(Cyanomethyl)sulfanyl]carbonyl}-7-(4-fluorophenyl)-11-hydroxy-10a,12a-dimethyl-1,2,3,3a,3b,4,5,7,10,10a,10b,11,12,12a-tetradecahydrocyclopenta[5,6]naphtho[1,2-f]indazol-1-yl thiophene-2-carboxylate], for which the concentration for half-maximal inhibition (IC50) came to 10 nM.

`Cc1cc(C(=O)O[C@]2(C(=O)SCC#N)CC[C@H]3[C@@H]4CCC5=Cc6c(cnn6-c6ccc(F)cc6)C[C@]5(C)[C@H]4[C@@H](O)C[C@@]32C)no1` [Example 116, (1R,3aS,3bS,10aR,10bS,11S,12aS)-1-{[(Cyanomethyl)sulfanyl]carbonyl}-7-(4-fluorophenyl)-11-hydroxy-10a,12a-dimethyl-1,2,3,3a,3b,4,5,7,10,10a,10b,11,12,12a-tetradecahydrocyclopenta[5,6]naphtho[1,2-f]indazol-1-yl 5-methylisoxazole-3-carboxylate]: the IC50 was 6.9 nM.

`CSCOC(=O)[C@@]1(O)CC[C@H]2[C@@H]3CCC4=Cc5c(cnn5-c5ccc(F)cc5)C[C@]4(C)[C@H]3[C@@H](O)C[C@@]21C` [Example 117, (Methylsulfanyl)methyl(1R,3aS,3bS,10aR,10bS,11S,12aS)-7-(4-fluorophenyl)-1,11-dihydroxy-10a,12a-dimethyl-1,2,3,3a,3b,4,5,7,10,10a,10b,11,12,12a-tetradecahydrocyclopenta[5,6]naphtho[1,2-f]indazole-1-carboxylate]: the IC50 worked out at 7 nM.

For `CSCSC(=O)[C@@]1(OC(C)=O)CC[C@H]2[C@@H]3CCC4=Cc5c(cnn5-c5ccc(F)cc5)C[C@]4(C)[C@H]3[C@@H](O)C[C@@]21C` [Example 118, (1R,3aS,3bS,10aR,10bS,11S,12aS)-7-(4-Fluorophenyl)-11-hydroxy-10a,12a-dimethyl-1-({[(methylsulfanyl)methyl]sulfanyl}carbonyl)-1,2,3,3a,3b,4,5,7,10,10a,10b,11,12,12a-tetradecahydrocyclopenta[5,6]naphtho[1,2-f]indazol-1-yl acetate], the IC50 stood at 18 nM.

For `CSCOC(=O)[C@@]1(OC(C)=O)CC[C@H]2[C@@H]3CCC4=Cc5c(cnn5-c5ccc(F)cc5)C[C@]4(C)[C@H]3[C@@H](O)C[C@@]21C` [Example 119, (Methylsulfanyl)methyl(1R,3aS,3bS,10aR,10bS,11S,12aS)-1-(acetyloxy)-7-(4-fluorophenyl)-11-hydroxy-10a,12a-dimethyl-1,2,3,3a,3b,4,5,7,10,10a,10b,11,12,12a-tetradecahydrocyclopenta[5,6]naphtho[1,2-f]indazole-1-carboxylate], the IC50 stood at 4.6 nM.

Consider `CSCOC(=O)[C@@]1(OCSC)CC[C@H]2[C@@H]3CCC4=Cc5c(cnn5-c5ccc(F)cc5)C[C@]4(C)[C@H]3[C@@H](O)C[C@@]21C` [Example 120, (Methylsulfanyl)methyl(1R,3aS,3bS,10aR,10bS,11S,12aS)-7-(4-fluorophenyl)-11-hydroxy-10a,12a-dimethyl-1-[(methylsulfanyl)methoxy]-1,2,3,3a,3b,4,5,7,10,10a,10b,11,12,12a-tetradecahydrocyclopenta[5,6]naphtho[1,2-f]indazole-1-carboxylate], for which the IC50 turned out to be 7 nM.

For `CCSC(=O)COC(=O)[C@@]1(OC(C)=O)CC[C@H]2[C@@H]3CCC4=Cc5c(cnn5-c5ccc(F)cc5)C[C@]4(C)[C@H]3[C@@H](O)C[C@@]21C` [Example 121, 2-(Ethylsulfanyl)-2-oxoethyl(1R,3aS,3bS,10aR,10bS,11S,12aS)-1-(acetyloxy)-7-(4-fluorophenyl)-11-hydroxy-10a,12a-dimethyl-1,2,3,3a,3b,4,5,7,10,10a,10b,11,12,12a-tetradecahydrocyclopenta[5,6]naphtho[1,2-f]indazole-1-carboxylate], the IC50 came out at 6.6 nM.

`CC(=O)O[C@]1(C(=O)CO)CC[C@H]2[C@@H]3CCC4=Cc5c(cnn5-c5ccc(F)cc5)C[C@]4(C)[C@H]3[C@@H](O)C[C@@]21C` [Example 122, (1R,3aS,3bS,10aR,10bS,11S,12aS)-7-(4-Fluorophenyl)-11-hydroxy-1-(hydroxyacetyl)-10a,12a-dimethyl-1,2,3,3a,3b,4,5,7,10,10a,10b,11,12,12a-tetradecahydrocyclopenta[5,6]naphtho[1,2-f]indazol-1-yl acetate]: the IC50 amounted to 1.3 nM.

`CC(=O)O[C@]1(C(=O)CSC(C)=O)CC[C@H]2[C@@H]3CCC4=Cc5c(cnn5-c5ccc(F)cc5)C[C@]4(C)[C@H]3[C@@H](O)C[C@@]21C` [Example 123, (1R,3aS,3bS,10aR,10bS,11S,12aS)-1-[(Acetylsulfanyl)acetyl]-7-(4-fluorophenyl)-11-hydroxy-10a,12a-dimethyl-1,2,3,3a,3b,4,5,7,10,10a,10b,11,12,12a-tetradecahydrocyclopenta[5,6]naphtho[1,2-f]indazol-1-yl acetate]: the IC50 came to 5.4 nM.

Turning to `CSCC(=O)[C@@]1(OC(C)=O)CC[C@H]2[C@@H]3CCC4=Cc5c(cnn5-c5ccc(F)cc5)C[C@]4(C)[C@H]3[C@@H](O)C[C@@]21C` [Example 124, (1R,3aS,3bS,10aR,10bS,11S,12aS)-7-(4-Fluorophenyl)-11-hydroxy-10a,12a-dimethyl-1-[(methylsulfanyl)acetyl]-1,2,3,3a,3b,4,5,7,10,10a,10b,11,12,12a-tetradecahydrocyclopenta[5,6]naphtho[1,2-f]indazol-1-yl acetate], the IC50 was 2.4 nM.

`CSCO[C@]1(C(=O)SCF)CC[C@H]2[C@@H]3CCC4=Cc5c(cnn5-c5ccc(F)cc5)C[C@]4(C)[C@H]3[C@@H](O)C[C@@]21C` [Example 125, S-(Fluoromethyl)(1R,3aS,3bS,10aR,10bS,11S,12aS)-7-(4-fluorophenyl)-11-hydroxy-10a,12a-dimethyl-1-[(methylsulfanyl)methoxy]1,2,3,3a,3b,4,5,7,10,10a,10b,11,12,12a-tetradecahydrocyclopenta[5,6]naphtho[1,2-f]indazole-1-carbothioate]: the IC50 stood at 4.7 nM.

For the compound `C[C@]12Cc3cnn(-c4ccc(F)cc4)c3C=C1CC[C@@H]1[C@@H]2[C@@H](O)C[C@@]2(C)[C@H]1CC[C@]2(OC(=O)C1CCOCC1)C(=O)SCC#N` [Example 126, (1R,3aS,3bS,10aR,10bS,11S,12aS)-1-{[(Cyanomethyl)sulfanyl]carbonyl}-7-(4-fluorophenyl)-11-hydroxy-10a,12a-dimethyl-1,2,3,3a,3b,4,5,7,10,10a,10b,11,12,12a-tetradecahydrocyclopenta[5,6]naphtho[1,2-f]indazol-1-yl tetrahydro-2H-pyran-4-carboxylate], the IC50 turned out to be 2.7 nM.

For the compound `C[C@]12Cc3cnn(-c4ccc(F)cc4)c3C=C1CC[C@@H]1[C@@H]2[C@@H](O)C[C@@]2(C)[C@H]1CC[C@]2(OC(=O)C1CCOCC1)C(=O)SCCO` [Example 127, (1R,3aS,3bS,10aR,10bS,11S,12aS)-7-(4-Fluorophenyl)-11-hydroxy-1-{[(2-hydroxyethyl)sulfanyl]carbonyl}-10a,12a-dimethyl-1,2,3,3a,3b,4,5,7,10,10a,10b,11,12,12a-tetradecahydrocyclopenta[5,6]naphtho[1,2-f]indazol-1-yl tetrahydro-2H-pyran-4-carboxylate], the IC50 is 3.7 nM.
